Measurements: patent US12201627B2, “NLRP3 modulators” (Innate Tumor Immunity, Inc., priority 2018, dated 2025)

These compounds were tested against T1, NLRP3 (Homo sapiens, UniProt Q96P20) (assay: Measurement of IL-1β production in PMA-differentiated THP-1 cells (NLRP3 hIL1B)). Details: read-out: NLRP3 hILIB IC50.
T1 construct: host or cells: PMA-differentiated THP-1 cells
T1 sequence (Q96P20 whole entry): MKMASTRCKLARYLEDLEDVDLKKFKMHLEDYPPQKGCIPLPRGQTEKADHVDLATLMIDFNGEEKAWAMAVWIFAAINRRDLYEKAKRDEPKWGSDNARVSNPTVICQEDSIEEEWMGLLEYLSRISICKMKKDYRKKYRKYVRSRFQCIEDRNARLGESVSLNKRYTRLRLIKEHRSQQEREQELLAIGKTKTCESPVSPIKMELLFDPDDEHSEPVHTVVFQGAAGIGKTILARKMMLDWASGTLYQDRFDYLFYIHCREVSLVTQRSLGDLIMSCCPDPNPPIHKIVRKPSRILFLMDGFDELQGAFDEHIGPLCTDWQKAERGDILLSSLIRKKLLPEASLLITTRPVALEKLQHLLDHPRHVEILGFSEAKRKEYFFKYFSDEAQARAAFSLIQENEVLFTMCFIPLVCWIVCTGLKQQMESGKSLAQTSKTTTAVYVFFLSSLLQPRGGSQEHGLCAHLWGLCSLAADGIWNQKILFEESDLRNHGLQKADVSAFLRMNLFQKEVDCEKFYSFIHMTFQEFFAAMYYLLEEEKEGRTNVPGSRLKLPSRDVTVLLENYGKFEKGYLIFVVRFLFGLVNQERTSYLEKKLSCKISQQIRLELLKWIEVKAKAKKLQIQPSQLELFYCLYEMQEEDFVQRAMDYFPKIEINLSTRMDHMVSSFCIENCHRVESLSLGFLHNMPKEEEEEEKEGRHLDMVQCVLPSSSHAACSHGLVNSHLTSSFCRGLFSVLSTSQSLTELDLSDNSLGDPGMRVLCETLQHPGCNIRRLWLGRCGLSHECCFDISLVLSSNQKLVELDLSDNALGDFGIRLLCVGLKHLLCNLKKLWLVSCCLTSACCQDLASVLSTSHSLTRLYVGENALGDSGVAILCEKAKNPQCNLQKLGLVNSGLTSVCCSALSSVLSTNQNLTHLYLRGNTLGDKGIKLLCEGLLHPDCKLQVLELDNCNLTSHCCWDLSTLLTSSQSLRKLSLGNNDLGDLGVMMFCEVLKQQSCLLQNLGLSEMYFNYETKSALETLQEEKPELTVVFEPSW
Format: cell-based
Description: Measurement of IL-1β Production in PMA-Differentiated THP-1 Cells
THP-1 cells were purchased from the American Type Culture Collection and sub-cultured according to instructions from the supplier. Prior to experiments, cells were cultured in RPMI 1640 containing 10% heat inactivated FBS, penicillin (100 units/ml) and streptomycin (100 μg/ml), and maintained in log phase prior to experimental setup. Prior to the experiment THP-1 were treated with PMA (Phorbol 12-myristate 13-acetate) ([…]) for 24 hours. The day of the experiment the media was removed and attaching cells were treated with trypsin for 2 minutes, cells were then collected, washed with PBS (phosphate buffer saline), spin down, resuspended in 2% heat inactivated FBS with RPMI at a concentration of 1×10^6 cells/ml, and 100 μl was plated in a 96 well plate. Compounds were dissolved in dimethyl sulfoxide (DMSO) and added to the culture medium to achieve desired concentration (e.g. 100, 30, 10, 3, 1, 0.3 or 0.1 μM). Cells were incubated with compounds for 4 hours. Cell free supernatant was collected and the production of IL-1β was evaluated by ELISA. A vehicle only control was run concurrently with each experiment. Final DMSO concentration was 1%.
Measurement of IL-1β Production in PMA-Differentiated THP-1 Cells (Alternative Procedure)
THP-1 cells were purchased from the American Type Culture Collection and sub-cultured according to instructions from the supplier. Prior to experiments, cells were cultured in RPMI 1640 containing 10% heat inactivated FBS, penicillin (100 units/ml), streptomycin (100 μg/ml), HEPES (10 mM) and sodium pyruvate (1 mM) and maintained in log phase prior to experimental setup. Prior to the experiment, THP-1 cells were treated with PMA (Phorbol 12-myristate 13-acetate) (20 μg/ml) overnight. The day of the experiment, the media was removed and attached cells were treated with trypsin for 2 minutes, cells were then collected, washed with PBS (phosphate buffer saline), pelleted by centrifugation and resuspended in 2% heat inactivated FBS with RPMI at a concentration of 50,000 cells/well in a 384 well plate. Cell free supernatant was collected and the production of IL-1β was evaluated by ELISA. Compounds were dissolved in dimethyl sulfoxide (DMSO) and added to the culture medium to achieve desired concentration (e.g. 100, 30, 10, 3, 1, 0.3 or 0.1 μM). Cells were incubated with compounds for 2 hours. A vehicle only control was run concurrently with each experiment. Final DMSO concentration was 1%.
Measurement of IL-1β Production—hTRF Protocol (Second Alternative Procedure)
Serial dilutions of compounds in DMSO were added to low volume 384 well plates at 100 nl/well using an ECHO 550 acoustic dispenser (Labcyte) to achieve final starting concentration of 10 μM in assay.
THP-1 cells in RPMI (Gibco, 11875) media with 10% FBS at a density of 1×10^6 cell/ml in a T175 flask were treated with a final concentration of phorbol 12-myristate 13-acetate (PMA) (Sigma, P1585) of 50 ng/ml overnight at 37° C. at 5% CO2 for differentiation. Cells were harvested the next day after rinsing well with dPBS using 0.5% trypsin. A cell solution was prepared of 1×10^6 cells/ml for 50,000 cells in 50 μl/well in RPMI media with 2% FBS. Cells were plated using a multichannel pipette onto the compound dilutions in Greiner, 384 well, black clear bottom tissue culture treated plates (781090). The plates were incubated in 37° C. incubator at 5% CO2 for 2 hours.
After the 2 hour incubation, the cell plates were spun in the centrifuge for 5 minutes at 1200 rpm. Using the Felix (CyBio), 8 μl of the supernatant was transferred to 384 well, low volume, white proxy plates. (Perkin Elmer, 6008230). A human IL1beta hTRF kit was used to analyze the supernatant (CISBIO, 62HIL1BPEG). The kit instructions were followed for preparing the IL1Beta standard curve and then the antibodies from the kit were diluted 1:40 rather than 1:20 as kit instructed. […]
With `Nc1nc2cc(-c3cc[nH]n3)ccc2c2c1nc(CN1CC(O)C1)n2C1CC1` [Example 16] the IC50 was 4800 nM.
In the case of `Nc1nc2cc(-c3cc[nH]n3)ccc2c2c1nc(CN1CC3(CCCO3)C1)n2C1CC1` [Example 14], the IC50 is reported as 1610 nM.
Work on `Nc1nc2cc(-c3cc[nH]n3)ccc2c2c1nc(CN1CC3(CCCO3)C1)n2C1CCC1` [Example 11] yielded an IC50 of 240 nM.
Work on `CC(C)n1c(CN2CC(C#N)C2)nc2c(N)nc3cc(-c4cc[nH]n4)ccc3c21` [Example 13] yielded an IC50 of 630 nM.
With `COC1CN(Cc2nc3c(N)nc4cc(-c5cc[nH]n5)ccc4c3n2C2CC2)C1` [Example 5] the IC50 was 270 nM.
`N#CC1CN(Cc2nc3c(N)nc4cc(-c5cc[nH]n5)ccc4c3n2C2CC2)C1` [Example 12] showed an IC50 of 2000 nM.
Work on `CC1(O)CN(Cc2nc3c(N)nc4cc(-c5cc[nH]n5)ccc4c3n2C2CCC2)C1` [Example 17] yielded an IC50 of 2200 nM.
In the case of `CC(C)n1c(CN2CC(C)(O)C2)nc2c(N)nc3cc(-c4cc[nH]n4)ccc3c21` [Example 15], the IC50 is reported as 1100 nM.
`Nc1nc2cc(-c3cc[nH]n3)ccc2c2c1nc(CN1CC(F)(F)C1)n2C1CCC1` [Example 8] was tested, and the IC50 was 200 nM.
`Nc1nc2cc(-c3cc[nH]n3)ccc2c2c1nc(CN1CCC1)n2C1CC1` [Example 4] showed an IC50 of 180 nM.
With `Nc1nc2cc(-c3cc[nH]n3)ccc2c2c1nc(CN1CC(F)(F)C1)n2CC(F)F` [Example 2] the IC50 was 80 nM.
`Nc1nc2cc(-c3cc[nH]n3)ccc2c2c1nc(CN1CC(F)C1)n2C1CC1` [Example 10] gave an IC50 of 250 nM.
`COC1CN(Cc2nc3c(N)nc4cc(-c5cc[nH]n5)ccc4c3n2C2CCC2)C1` [Example 1, 1-cyclobutyl-2-[(3-methoxyazetidin-1-yl)methyl]-7-(1H-pyrazol-5-yl)-1H-imidazo[4,5-c]quinolin-4-amine] gave an IC50 of 120 nM.
`COC1CN(Cc2nc3c(N)nc4cc(-c5cc[nH]n5)ccc4c3n2CC(F)F)C1` [Example 7] showed an IC50 of 220 nM.
In the case of `Nc1nc2cc(-c3cc[nH]n3)ccc2c2c1nc(CN1CC(F)C1)n2CC(F)F` [Example 3], the IC50 is reported as 220 nM.
`Nc1nc2cc(-c3cc[nH]n3)ccc2c2c1nc(CN1CC(F)C1)n2C1CCC1` [Example 6] showed an IC50 of 260 nM.

These compounds were tested against T2, human TLR8 (Homo sapiens, UniProt Q9NR97) (assay: In vitro human TLR8 reporter assay (HEK-Blue cells, NF-kB/AP1-inducible SEAP)). Details: HEK-Blue cells expressing TLR8, SEAP reporter; read-out: TLR8 Agonist EC50.
T2 construct: host or cells: HEK-Blue cells (human HEK) co-expressing TLR8 and an NF-kB/AP1-inducible SEAP reporter
T2 sequence (Q9NR97 27-1041): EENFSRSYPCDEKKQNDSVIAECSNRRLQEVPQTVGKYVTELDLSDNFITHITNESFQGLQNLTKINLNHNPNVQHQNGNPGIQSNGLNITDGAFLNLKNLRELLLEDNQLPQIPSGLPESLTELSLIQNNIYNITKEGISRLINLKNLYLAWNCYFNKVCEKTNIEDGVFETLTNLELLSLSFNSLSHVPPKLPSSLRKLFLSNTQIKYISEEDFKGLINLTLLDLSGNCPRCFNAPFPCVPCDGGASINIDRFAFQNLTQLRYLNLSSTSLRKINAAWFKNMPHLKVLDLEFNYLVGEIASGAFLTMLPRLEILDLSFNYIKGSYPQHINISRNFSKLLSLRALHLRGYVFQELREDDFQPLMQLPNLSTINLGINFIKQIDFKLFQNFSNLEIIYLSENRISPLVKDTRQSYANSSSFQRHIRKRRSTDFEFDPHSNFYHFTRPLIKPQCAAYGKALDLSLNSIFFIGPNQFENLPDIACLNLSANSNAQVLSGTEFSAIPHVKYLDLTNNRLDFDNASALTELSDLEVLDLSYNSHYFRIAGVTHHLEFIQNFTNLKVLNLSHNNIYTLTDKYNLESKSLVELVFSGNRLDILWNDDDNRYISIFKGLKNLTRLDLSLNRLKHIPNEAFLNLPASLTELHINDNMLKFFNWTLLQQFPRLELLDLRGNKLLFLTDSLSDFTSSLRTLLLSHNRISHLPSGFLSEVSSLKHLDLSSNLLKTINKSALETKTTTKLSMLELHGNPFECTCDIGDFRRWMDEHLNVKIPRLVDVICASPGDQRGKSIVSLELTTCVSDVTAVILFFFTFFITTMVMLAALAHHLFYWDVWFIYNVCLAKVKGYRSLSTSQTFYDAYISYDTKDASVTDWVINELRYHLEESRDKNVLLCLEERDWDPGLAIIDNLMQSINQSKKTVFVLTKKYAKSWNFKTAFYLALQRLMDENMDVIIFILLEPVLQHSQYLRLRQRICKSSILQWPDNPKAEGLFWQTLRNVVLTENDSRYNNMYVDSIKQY
Format: cell-based
Description: In Vitro Human TLR7 and TLR8 Binding Reporter Assays
Logarithmically-growing human HEK-Blue cells co-expressing a TLR7 or TLR8 gene and a NF-kB/AP1-inducible SEAP (secreted embryonic alkaline phosphatase; Invivogen, San Diego, Calif.) reporter gene are added to individual wells of a 384-well plate (15,000 cells per 20 μL per well) and maintained for 24 h at 37° C., 5% CO2. Test compounds or DMSO are distributed to separate wells the next day using acoustic liquid handling technology (100 nL per well) and cells are subsequently incubated for 18 h at 37° C., 5% CO2. Cellular SEAP production is measured using an Envision plate reader instrument thirty minutes after adding freshly-made Quanti-Blue reagent (prepared by following manufacturer instructions; Invivogen, San Diego, Calif.) to the HEK-Blue TLR Nf-kB-SEAP cell reactions. All EC50 values (half-maximal effective concentration) are determined using proprietary data analysis software. Normalized EC50 value=absolute value determined by setting 100% Ymax using a reference standard RLU (relative light unit) values from cells treated with 50 μM of the reference standard.
Compound `Nc1nc2cc(-c3cc[nH]n3)ccc2c2c1nc(CN1CC(F)(F)C1)n2CC(F)F` [Example 2] has an EC50 of 1000 to 20000 nM.
